In ChEMBL document CHEMBL3797164, “Transfer of SAR information from hypotensive indazole to indole derivatives acting at α-adrenergic receptors: In vitro and in vivo studies” (Eur J Med Chem, 2016) one finds Activity and Ki data, which are given here for three molecules.

For test [1], the system named is Rattus norvegicus. Description: Antihypertensive activity in anesthetized Wistar rat assessed as change in mean arterial blood pressure at 0.1 mg/kg, iv administered as bolus dose after 15 mins (reference value: -0.8 mmHg). In kind it is functional.
Test [2] has as its target T1, Adrenergic receptor alpha-1 (Rattus norvegicus, UniProt P15823+P23944+P43140).
T1 sequence (P15823 whole entry): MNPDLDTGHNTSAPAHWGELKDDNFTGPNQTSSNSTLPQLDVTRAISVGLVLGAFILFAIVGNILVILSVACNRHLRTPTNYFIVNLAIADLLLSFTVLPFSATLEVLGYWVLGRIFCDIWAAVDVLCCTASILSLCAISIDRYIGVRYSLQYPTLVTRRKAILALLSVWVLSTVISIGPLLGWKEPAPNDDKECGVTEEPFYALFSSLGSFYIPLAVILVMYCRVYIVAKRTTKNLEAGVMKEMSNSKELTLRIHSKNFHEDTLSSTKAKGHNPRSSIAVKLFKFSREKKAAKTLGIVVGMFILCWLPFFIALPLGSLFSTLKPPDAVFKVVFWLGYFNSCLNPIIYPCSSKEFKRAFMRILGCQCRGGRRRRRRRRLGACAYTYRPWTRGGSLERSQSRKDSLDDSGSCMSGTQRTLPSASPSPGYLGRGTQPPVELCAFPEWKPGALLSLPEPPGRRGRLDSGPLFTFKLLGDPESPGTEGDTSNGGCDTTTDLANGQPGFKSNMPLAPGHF
T1 sequence (P23944 whole entry): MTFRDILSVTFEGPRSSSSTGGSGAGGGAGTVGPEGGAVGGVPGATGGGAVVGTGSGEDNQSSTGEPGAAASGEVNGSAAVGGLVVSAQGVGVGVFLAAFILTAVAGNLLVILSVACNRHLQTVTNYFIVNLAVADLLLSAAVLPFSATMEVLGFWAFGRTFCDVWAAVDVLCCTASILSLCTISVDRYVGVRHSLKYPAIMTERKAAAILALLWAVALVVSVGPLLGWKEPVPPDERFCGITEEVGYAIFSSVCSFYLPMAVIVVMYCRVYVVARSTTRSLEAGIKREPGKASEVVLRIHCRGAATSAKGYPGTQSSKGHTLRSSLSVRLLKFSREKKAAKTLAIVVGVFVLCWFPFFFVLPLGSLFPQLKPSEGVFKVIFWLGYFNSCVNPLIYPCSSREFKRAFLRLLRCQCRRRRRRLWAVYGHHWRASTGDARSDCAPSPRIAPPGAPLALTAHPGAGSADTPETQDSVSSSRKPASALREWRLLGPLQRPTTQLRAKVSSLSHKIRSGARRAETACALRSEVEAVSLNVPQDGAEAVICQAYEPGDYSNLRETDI
T1 sequence (P43140 whole entry): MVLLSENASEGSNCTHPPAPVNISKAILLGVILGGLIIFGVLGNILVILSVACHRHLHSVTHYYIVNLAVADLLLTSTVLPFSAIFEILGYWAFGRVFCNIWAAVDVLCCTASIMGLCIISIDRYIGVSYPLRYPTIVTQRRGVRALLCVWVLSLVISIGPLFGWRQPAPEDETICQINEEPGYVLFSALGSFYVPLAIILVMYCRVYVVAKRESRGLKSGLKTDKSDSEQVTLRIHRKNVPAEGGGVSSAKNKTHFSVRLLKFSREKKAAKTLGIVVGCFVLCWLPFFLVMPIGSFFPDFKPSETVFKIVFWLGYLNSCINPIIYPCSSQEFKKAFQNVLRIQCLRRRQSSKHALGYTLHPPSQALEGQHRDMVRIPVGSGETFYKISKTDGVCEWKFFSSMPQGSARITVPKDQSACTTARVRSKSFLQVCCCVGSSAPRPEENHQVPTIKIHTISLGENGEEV
In words: Displacement of [3H]prazosine from Alpha-1 adrenergic receptor in Sprague-Dawley rat brain P2 membranes after […] by liquid scintillation counting.

In test [3] the test system is Rattus norvegicus. Description: Antihypertensive activity in anesthetized Wistar rat assessed as change in heart rate at 0.1 mg/kg, iv administered as bolus dose after 5 mins (reference value: -2.9 […]). In kind it is functional.
The subject of test [4] is Rattus norvegicus. In words: Antihypertensive activity in anesthetized Wistar rat assessed as change in heart rate at 0.1 mg/kg, iv administered as bolus dose after 15 mins (reference value: -6.0 […]). The test is classed as functional.
A short description of test [5]: Displacement of [3H]2BFI from Imidazoline receptor 2 in Sprague-Dawley rat brain P2 membrans after […] by liquid scintillation counting.
Test [6] has as its system Rattus norvegicus. Description: Antihypertensive activity in anesthetized Wistar rat assessed as change in heart rate at 0.1 mg/kg, iv administered as bolus dose after 60 mins (reference value: -6.2 […]). The test is classed as functional.
Test [7] concerns Rattus norvegicus. Description: Antihypertensive activity in anesthetized Wistar rat assessed as change in heart rate at 0.1 mg/kg, iv administered as bolus dose after 30 mins (reference value: -8.6 […]). The test is classed as functional.

SMILES strings stand for the structures.

As to `Cl.Clc1cccc2ccn(CC3=NCCN3)c12`, the Activity in test [1] is reported as -36 mmHg; in test [3] it was -132 bpm; in test [4], -130.7 bpm; in test [6], -129.4 bpm; in test [7], -125.4 bpm. For the same molecule, the Ki in test [2] was found to be 6.82 nM; in test [5], 71.1 nM.

Regarding `Br.Cc1cccc2ccn(CC3=NCCN3)c12`, the Activity is recorded as -39.2 mmHg in test [1]; -83.3 bpm in test [3]; -107.5 bpm in test [4]; -87.7 bpm in test [6]; -111.7 bpm in test [7]. For the same molecule, the Ki in test [2] came out at 24.97 nM; in test [5], 1160 nM.

Regarding `Cl.c1ccc2c(c1)ccn2CC1=NCCN1`, the Activity in test [1] is 6.9 mmHg; in test [3] it was -100.1 bpm; in test [4] it was -115.2 bpm; in test [6] it was -75.1 bpm; in test [7], -105.3 bpm. Moreover, the Ki was 61.4 nM in test [2] and 197 nM in test [5].
